Each structure is given as a SMILES string. A value given as a limit tells only on which side of the number the result lay.

Experimental findings from US20250381185A1, “CDK4/PARP1 DUAL-TARGET INHIBITOR AND USE THEREOF” (YANBIAN UNIVERSITY, priority 2024, published 2025) are described below.

One assay deals with CDK4 (Homo sapiens, UniProt P11802). Description: IC50 of dual-target inhibitors against CDK4. Type of assay: biochemical. On the procedure: The effectiveness of the present application was verified through the following tests: • (1) IC50 values of the dual-target inhibitors (Examples 1-11) against CDK4 were determined.
Chain of CDK4 (P11802 whole entry): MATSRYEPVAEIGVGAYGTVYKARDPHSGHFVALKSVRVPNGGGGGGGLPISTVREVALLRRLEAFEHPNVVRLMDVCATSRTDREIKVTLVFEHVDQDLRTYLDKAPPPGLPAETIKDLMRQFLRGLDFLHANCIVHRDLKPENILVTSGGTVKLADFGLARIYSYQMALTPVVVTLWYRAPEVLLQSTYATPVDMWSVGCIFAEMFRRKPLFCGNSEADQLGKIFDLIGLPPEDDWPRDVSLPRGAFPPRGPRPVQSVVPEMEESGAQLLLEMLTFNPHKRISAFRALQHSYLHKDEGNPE
Chain of CDK4 (P24385 whole entry partner): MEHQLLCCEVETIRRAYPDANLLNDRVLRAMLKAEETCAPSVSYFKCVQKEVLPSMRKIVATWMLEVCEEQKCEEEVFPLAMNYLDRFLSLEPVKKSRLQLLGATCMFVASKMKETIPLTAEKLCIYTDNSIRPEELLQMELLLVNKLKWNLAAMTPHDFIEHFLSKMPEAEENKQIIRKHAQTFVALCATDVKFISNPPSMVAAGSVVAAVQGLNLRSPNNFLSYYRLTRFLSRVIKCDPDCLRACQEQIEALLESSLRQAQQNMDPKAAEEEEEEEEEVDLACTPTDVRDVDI
Another assay deals with PARP1 (Homo sapiens, UniProt P09874). Nature of the assay: IC50 of dual-target inhibitors against PARP1. It is filed as biochemical.
Chain of PARP1 (P09874 whole entry): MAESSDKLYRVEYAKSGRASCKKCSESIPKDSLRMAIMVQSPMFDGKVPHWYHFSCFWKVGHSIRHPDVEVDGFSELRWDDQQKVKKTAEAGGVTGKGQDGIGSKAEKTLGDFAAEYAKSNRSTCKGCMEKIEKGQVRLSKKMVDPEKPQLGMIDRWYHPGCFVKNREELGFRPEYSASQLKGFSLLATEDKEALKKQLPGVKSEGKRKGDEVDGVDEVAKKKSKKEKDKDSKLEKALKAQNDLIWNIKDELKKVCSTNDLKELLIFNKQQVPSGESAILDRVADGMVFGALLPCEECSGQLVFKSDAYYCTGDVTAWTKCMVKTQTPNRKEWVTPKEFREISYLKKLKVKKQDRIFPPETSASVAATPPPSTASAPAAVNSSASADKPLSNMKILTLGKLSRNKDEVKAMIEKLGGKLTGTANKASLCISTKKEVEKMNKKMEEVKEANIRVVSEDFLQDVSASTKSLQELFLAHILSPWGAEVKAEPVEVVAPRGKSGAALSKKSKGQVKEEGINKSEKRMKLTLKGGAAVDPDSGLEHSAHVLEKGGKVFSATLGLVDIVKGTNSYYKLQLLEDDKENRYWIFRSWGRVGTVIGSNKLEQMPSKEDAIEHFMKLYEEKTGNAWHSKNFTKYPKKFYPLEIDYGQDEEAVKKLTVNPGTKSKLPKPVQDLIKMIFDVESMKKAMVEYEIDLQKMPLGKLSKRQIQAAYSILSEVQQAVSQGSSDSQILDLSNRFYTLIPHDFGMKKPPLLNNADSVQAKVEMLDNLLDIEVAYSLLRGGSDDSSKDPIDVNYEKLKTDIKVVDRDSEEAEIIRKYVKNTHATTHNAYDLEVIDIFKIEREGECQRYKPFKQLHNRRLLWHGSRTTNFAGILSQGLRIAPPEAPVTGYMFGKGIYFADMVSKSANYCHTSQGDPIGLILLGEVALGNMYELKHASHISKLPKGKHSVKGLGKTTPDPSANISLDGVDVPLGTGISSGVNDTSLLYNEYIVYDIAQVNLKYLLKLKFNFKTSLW

The term IC50 denotes the point on the concentration scale where inhibition reaches its midpoint. Low values mean greater potency, high ones weaker potency. With `CN(C)C(=O)c1cc2cnc(N3CCN(C(=O)c4cc(Cc5n[nH]c(=O)c6ccccc56)ccc4F)CC3)nc2n1C1CCCC1` [Compound D9], the IC50 on CDK4 is over 0.5 µM; against PARP1, under 0.01 µM.

For `CN(C)C(=O)c1cc2cnc(NCCOC(=O)c3cc(Cc4n[nH]c(=O)c5ccccc45)ccc3F)nc2n1C1CCCC1` [Compound F1], the IC50 against CDK4 is over 0.5 µM; at PARP1, 0.01 to 0.1 µM.

As to `CN(C)C(=O)c1cc2cnc(Nc3ccc(NC(=O)CNC(=O)c4cc(Cc5n[nH]c(=O)c6ccccc56)ccc4F)cc3)nc2n1C1CCCC1` [Compound D14], the values for the IC50 against CDK4 and against PARP1 were under 0.01 µM and 0.01 to 0.1 µM, respectively.

For the molecule `Cc1nc2c(F)cc(-c3nc(Nc4ccc(CC(=O)N5CCN(C(=O)c6cc(Cc7n[nH]c(=O)c8ccccc78)ccc6F)CC5)cc4)ncc3F)cc2n1C(C)C` [Compound C9], the IC50 on CDK4 is under 0.01 µM; against PARP1 it was 0.01 to 0.1 µM.

On to `Cc1nc2c(F)cc(-c3nc(Nc4ccc(NC(=O)c5cc(Cc6n[nH]c(=O)c7ccccc67)ccc5F)cc4)ncc3F)cc2n1C(C)C` [Compound C1], for which the results for the IC50 against CDK4 and against PARP1 were 0.01 to 0.1 µM and 0.1 to 0.5 µM, respectively.

With `Cc1nc2c(F)cc(-c3nc(Nc4ccc(CN5CCN(C(=O)c6cc(Cc7n[nH]c(=O)c8ccccc78)ccc6F)CC5)cc4)ncc3F)cc2n1C(C)C` [Compound C6], the IC50 on CDK4 was under 0.01 µM; against PARP1 it was 0.01 to 0.1 µM.

Regarding `Cc1nc2c(F)cc(-c3nc(Nc4cccc(C(=O)Nc5cccc(Cc6n[nH]c(=O)c7ccccc67)c5)c4)ncc3F)cc2n1C(C)C` [Compound A5], the IC50 at CDK4 was 0.01 to 0.1 µM; against PARP1, over 0.5 µM.

Turning to `CN(C)C(=O)c1cc2cnc(NCCNC(=O)[C@H](Cc3c[nH]c4ccccc34)NC(=O)c3cc(Cc4n[nH]c(=O)c5ccccc45)ccc3F)nc2n1C1CCCC1` [Compound E3], the IC50 on CDK4 was over 0.5 µM; on PARP1 it was 0.01 to 0.1 µM.

For the molecule `CN(C)C(=O)c1cc2nc(NCCNC(=O)[C@H](Cc3ccccc3)NC(=O)c3cc(Cc4n[nH]c(=O)c5ccccc45)ccc3F)ncc2n1C1CCCC1` [Compound E4], the IC50 on CDK4 is over 0.5 µM; on PARP1, 0.01 to 0.1 µM.

As to `Cc1nc2c(F)cc(-c3nc(Nc4ccc(C(=O)N5CCN(c6cccc(NC(=O)c7cc(Cc8n[nH]c(=O)c9ccccc89)ccc7F)c6)CC5)cc4)ncc3F)cc2n1C(C)C` [Compound C3], the 50% inhibitory concentration (IC50) at CDK4 was 0.01 to 0.1 µM; at PARP1 it was over 0.5 µM.

As for `Cc1nc2c(F)cc(-c3nc(Nc4ccc(N5CCN(C(=O)c6cc(Cc7n[nH]c(=O)c8ccccc78)ccc6F)CC5)cc4)ncc3F)cc2n1C(C)C` [Compound C5], the 50% inhibitory concentration (IC50) on CDK4 and at PARP1 was under 0.01 µM throughout.

Consider `Cc1nc2c(F)cc(-c3nc(Nc4ccc(C(=O)N5CCN(c6ccc(NC(=O)c7cc(Cc8n[nH]c(=O)c9ccccc89)ccc7F)cc6)CC5)cc4)ncc3F)cc2n1C(C)C` [Compound C2], for which the figures for the concentration for half-maximal inhibition (IC50) against CDK4 and against PARP1 were 0.01 to 0.1 µM and over 0.5 µM, respectively.

For `CN(C)C(=O)c1cc2cnc(NNC(=O)c3cc(Cc4n[nH]c(=O)c5ccccc45)ccc3F)nc2n1C1CCCC1` [Compound D1], the IC50 against CDK4 is over 0.5 µM; against PARP1 it was 0.1 to 0.5 µM.

Turning to `Cc1nc2c(F)cc(-c3nc(Nc4cccc(C(=O)N5CCN(C(=O)c6cc(Cc7n[nH]c(=O)c8ccccc78)ccc6F)CC5)c4)ncc3F)cc2n1C(C)C` [Compound C8], the IC50 on CDK4 and at PARP1 was 0.01 to 0.1 µM each time.

As to `CN(C)C(=O)c1cc2cnc(NCCNC(=O)CNC(=O)c3cc(Cc4n[nH]c(=O)c5ccccc45)ccc3F)nc2n1C1CCCC1` [Compound E1], the values for the IC50 at CDK4 and against PARP1 were 0.1 to 0.5 µM and under 0.01 µM, respectively.

Regarding `CC(C)[C@H](NC(=O)c1cc(Cc2n[nH]c(=O)c3ccccc23)ccc1F)C(=O)NNc1ncc2c(cc(C(=O)N(C)C)n2C2CCCC2)n1` [Compound E8], the figures for the IC50 against CDK4 and at PARP1 were over 0.5 µM and 0.01 to 0.1 µM, respectively.

As for `Cc1nc2c(F)cc(-c3nc(Nc4ccc(C(=O)N5CCN(C(=O)c6cc(Cc7n[nH]c(=O)c8ccccc78)ccc6F)CC5)cc4)ncc3F)cc2n1C(C)C` [Compound C7], the results for the IC50 against CDK4 and against PARP1 were under 0.01 µM and 0.01 to 0.1 µM, respectively.

Turning to `Cc1nc2c(F)cc(-c3nc(Nc4ccc(CC(=O)Nc5cccc(Cc6n[nH]c(=O)c7ccccc67)c5)cc4)ncc3F)cc2n1C(C)C` [Compound A3], the IC50 at CDK4 and against PARP1 was 0.01 to 0.1 µM each time.

`CC(C)[C@H](NC(=O)c1cc(Cc2n[nH]c(=O)c3ccccc23)ccc1F)C(=O)NCCNc1ncc2cc(C(=O)N(C)C)n(C3CCCC3)c2n1` [Compound E2]: the IC50 is 0.1 to 0.5 µM on CDK4 and 0.01 to 0.1 µM on PARP1.

As for `CN(C)C(=O)c1cc2cnc(NCCCOC(=O)c3cc(Cc4n[nH]c(=O)c5ccccc45)ccc3F)nc2n1C1CCCC1` [Compound F2], the results for the IC50 on CDK4 and on PARP1 were over 0.5 µM and 0.01 to 0.1 µM, respectively.

Regarding `Cc1nc2c(F)cc(-c3nc(Nc4ccc(NC(=O)CCC(=O)Nc5cccc(Cc6n[nH]c(=O)c7ccccc67)c5)cc4)ncc3F)cc2n1C(C)C` [Compound A4], the figures for the half-inhibitory concentration (IC50) on CDK4 and at PARP1 were under 0.01 µM and 0.1 to 0.5 µM, respectively.

As for `CN(C)C(=O)c1cc2cnc(NCCCCCCNC(=O)c3cc(Cc4n[nH]c(=O)c5ccccc45)ccc3F)nc2n1C1CCCC1` [Compound D6], the IC50 is over 0.5 µM against CDK4 and under 0.01 µM on PARP1.

For `Cc1nc2c(F)cc(-c3nc(Nc4cccc(Cc5n[nH]c(=O)c6ccccc56)c4)ncc3F)cc2n1C(C)C` [Compound A1], the IC50 against CDK4 was under 0.01 µM; against PARP1, 0.1 to 0.5 µM.

In the case of `Cc1nc2c(F)cc(-c3nc(Nc4ccc(C(=O)Nc5cccc(Cc6n[nH]c(=O)c7ccccc67)c5)cc4)ncc3F)cc2n1C(C)C` [Compound A2], the half-maximal inhibitory concentration (IC50) at CDK4 was under 0.01 µM; at PARP1, over 0.5 µM.

As for `Cc1nc2c(F)cc(-c3nc(Nc4ccc(Cc5n[nH]c(=O)c6ccccc56)cc4)ncc3F)cc2n1C(C)C` [Compound B1], the half-maximal inhibitory concentration (IC50) on CDK4 is under 0.01 µM; at PARP1, over 0.5 µM.
